Patent publication US20120184542A1, “PYRIDO PYRIMIDINES” (priority 2011, published 2012)
Where a name gives a salt, the structure may show the parent alone. Read-outs that look alike come from different tables or passages of the source.

Assays:
Human DYRK1A = target: T1, Human DYRK1A (Homo sapiens, UniProt Q13627); assay: DYRK1A Kinase TR-FRET (IMAP-Tb) Assay; format: biochemical; details: TR-FRET (IMAP-Tb); ATP 70 μM; 37° C. 60 minutes; read-out: Enzyme IC50 (μM) DYRK1A
T1 construct: purchased Invitrogen PV3997
Procedure, shortened: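 Recombinant human DYRK1A phosphorylated fluorescent substrate peptide (1.0 μM) with ATP in 10 mM HEPES pH 7.0, 50 mM NaCl, 5 mM MgCl2, 1 mM DTT, 1 mM NaVO4, 0.02% BSA for 60 min at 37 °C. Phosphopeptide detected by IMAP terbium TR-FRET; IC50 reported.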

[1] = tested on: SW620 human colon cancer cells; assay: SW620 Cell Viability Assay; format: cell-based; details: CellTiter-Glo, 4 days incubation, read-out: Cellular EC50 (μM) SW620
Procedure, shortened: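 SW620 human colon cancer cells, some attached 24 h then serum-starved 48 h before dosing; compounds prepared in serum-supplemented medium. Cells incubated with compound 4 days at 37 °C, 5% CO2, and viability measured by CellTiter-Glo luminescence.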

Human DYRK1B = target: T2, Human DYRK1B (Homo sapiens, UniProt Q9Y463); assay: DYRK1B Kinase TR-FRET (IMAP-Tb) Assay; format: biochemical; details: TR-FRET (IMAP-Tb); ATP 70 μM; 37° C. 60 minutes; read-out: Enzyme IC50 (μM) DYRK1B
T2 construct: purchased Invitrogen PR8350B (former PV4649)
T2 sequence (Q9Y463 whole entry): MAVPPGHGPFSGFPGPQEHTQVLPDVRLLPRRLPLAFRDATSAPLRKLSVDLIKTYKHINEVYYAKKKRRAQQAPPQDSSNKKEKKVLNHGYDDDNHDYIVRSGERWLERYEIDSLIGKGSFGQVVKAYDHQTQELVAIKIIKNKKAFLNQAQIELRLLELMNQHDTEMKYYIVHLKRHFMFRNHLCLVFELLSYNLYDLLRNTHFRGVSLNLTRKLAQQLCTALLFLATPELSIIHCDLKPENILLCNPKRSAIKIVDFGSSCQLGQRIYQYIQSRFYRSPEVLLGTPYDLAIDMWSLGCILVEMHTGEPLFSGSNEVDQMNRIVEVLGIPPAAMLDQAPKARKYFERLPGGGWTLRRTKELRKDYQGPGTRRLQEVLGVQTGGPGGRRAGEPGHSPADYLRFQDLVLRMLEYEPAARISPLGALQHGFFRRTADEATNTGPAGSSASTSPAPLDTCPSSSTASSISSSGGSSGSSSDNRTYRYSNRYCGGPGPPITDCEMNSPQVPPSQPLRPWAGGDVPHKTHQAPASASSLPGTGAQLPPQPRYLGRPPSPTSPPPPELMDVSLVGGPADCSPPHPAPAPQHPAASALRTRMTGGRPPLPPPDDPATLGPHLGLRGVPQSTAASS

| SMILES | IC50 (Human DYRK1A) | EC50 ([1]; Homo sapiens, SW-620, 96 h) | IC50 (Human DYRK1B) | EC50 ([1]; hydrochloride) | EC50 [1] |
| --- | --- | --- | --- | --- | --- |
| CN1CCN(CCCNc2ncc3cc(C(=O)Nc4cc(C(=O)NCc5cccc(Cl)c5)ccc4Cl)c(=O)[nH]c3n2)CC1 [Example 101, 2-[3-(4-Methyl-piperazin-1-yl)-propylamino]-7-oxo-7,8-dihydro-pyrido[2,3-d]pyrimidine-6-carboxylic acid [2-chloro-5-(3-chloro-benzylcarbamoyl)-phenyl]amide] | 0.0263 µM | 0.0663 µM | 0.0221 µM | – | – |
| Cc1ncc2cc(C(=O)Nc3cc(C(=O)NC(CN)c4ccccc4)ccc3Cl)c(=O)[nH]c2n1 (stereo not drawn) [Example 114, N-(5-(2-Amino-1-phenylethylcarbamoyl)-2-chlorophenyl)-2-methyl-7-oxo-7,8-dihydropyrido[2,3-d]pyrimidine-6-carboxamide hydrochloride] | 0.0373 µM | 1.32 µM | 0.0146 µM | – | – |
| O=C(NCc1cccc(Cl)c1)c1ccc(Cl)c(NC(=O)c2cc3cnc(OCCCN4CCOCC4)nc3[nH]c2=O)c1 [Example 80, 2-(3-Morpholin-4-yl-propoxy)-7-oxo-7,8-dihydro-pyrido[2,3-d]pyrimidine-6-carboxylic acid [2-chloro-5-(3-chloro-benzylcarbamoyl)-phenyl]-amide] | 0.0046 µM | 0.325 µM | 0.231 µM | – | – |
| COc1ncc2cc(C(=O)Nc3cc(C(=O)NC(CN)c4cccc(Cl)c4)ccc3Cl)c(=O)[nH]c2n1 (stereo not drawn) [Example 85, 2-Methoxy-7-oxo-7,8-dihydro-pyrido[2,3-d]pyrimidine-6-carboxylic acid {5-[2-amino-1-(3-chloro-phenyl)-ethylcarbamoyl]-2-chloro-phenyl}-amide] | 0.03 µM | 0.524 µM | 0.029 µM | – | – |
| O=C(NCc1cccc(Cl)c1)c1ccc(Cl)c(NC(=O)c2cc3cnc(N4C[C@H]5CC[C@@H](C4)O5)nc3[nH]c2=O)c1 [Example 179, 2-(1R,5S)-8-Oxa-3-aza-bicyclo [3.2.1]oct-3-yl-7-oxo-7,8-dihydro-pyrido[2,3-d]pyrimidine-6-carboxylic acid [2-chloro-5-(3-chloro-benzylcarbamoyl)-phenyl]amide] | 0.0369 µM | 0.367 µM | 0.131 µM | – | – |
| CN1CCN(c2ncc3cc(C(=O)Nc4cc(C(=O)NCc5cccc(Cl)c5)ccc4Cl)c(=O)[nH]c3n2)CC1 [Example 75, 2-(4-Methyl-piperazin-1-yl)-7-oxo-7,8-dihydro-pyrido[2,3-d]pyrimidine-6-carboxylic acid [2-chloro-5-(3-chloro-benzylcarbamoyl)-phenyl]-amide] | 0.0211 µM | 0.563 µM | 0.103 µM | – | – |
| CN1CCN(CCNc2ncc3cc(C(=O)Nc4cc(C(=O)NCc5cccc(Cl)c5)ccc4Cl)c(=O)[nH]c3n2)CC1 [Example 100, N-(2-chloro-5-(3-chlorobenzylcarbamoyl)phenyl)-2-(2-(4-methylpiperazin-1-yl)ethylamino)-7-oxo-7,8-dihydropyrido[2,3-d]pyrimidine-6-carboxamide hydrochloride] | 0.0381 µM | – | 0.142 µM | 0.068 µM | – |
| CN1CCN(CCNc2ncc3cc(C(=O)Nc4cc(C(=O)NC(CN)c5ccccc5)ccc4Cl)c(=O)[nH]c3n2)CC1 (stereo not drawn) [Example 139, N-(5-(2-Amino-1-phenylethylcarbamoyl)-2-chlorophenyl)-2-(2-(4-methylpiperazin-1-yl)ethylamino)-7-oxo-7,8-dihydropyrido[2,3-d]pyrimidine-6-carboxamide hydrochloride] | 0.006 µM | 0.396 µM | 0.019 µM | – | – |
| O=C(NCc1cccc(Cl)c1)c1ccc(Cl)c(NC(=O)c2cc3cnc(NC4CCNCC4)nc3[nH]c2=O)c1 [Example 125, N-(2-Chloro-5-(3-chlorobenzylcarbamoyl)phenyl)-7-oxo-2-(piperidin-4-ylamino)-7,8-dihydropyrido[2,3-d]pyrimidine-6-carboxamide hydrochloride] | 0.0303 µM | 1.5 µM | 0.206 µM | – | – |
| O=C(NCc1cccc(Cl)c1)c1ccc(Cl)c(NC(=O)c2cc3cnc(NCCN4CCCC4)nc3[nH]c2=O)c1 [Example 89, 7-Oxo-2-(2-pyrrolidin-1-yl-ethylamino)-7,8-dihydro-pyrido[2,3-d]pyrimidine-6-carboxylic acid [2-chloro-5-(3-chloro-benzylcarbamoyl)-phenyl]amide] | 0.0189 µM | 0.192 µM | 0.023 µM | – | – |
| O=C(NC(CCO)c1ccccc1)c1ccc(Cl)c(NC(=O)c2cc3cnc(N4C[C@H]5CC[C@@H](C4)O5)nc3[nH]c2=O)c1 (stereo partly drawn) [Example 182, 2-(1R,5S)-8-Oxa-3-aza-bicyclo [3.2.1]oct-3-yl-7-oxo-7,8-dihydro-pyrido[2,3-d]pyrimidine-6-carboxylic acid [2-chloro-5-(3-hydroxy-1-phenyl-propylcarbamoyl)-phenyl]amide] | 0.083 µM | 1.12 µM | 0.081 µM | – | – |
| COc1ncc2cc(C(=O)Nc3cc(C(=O)NCCc4ccccc4)ccc3Cl)c(=O)[nH]c2n1 [Example 70, 2-Methoxy-7-oxo-7,8-dihydro-pyrido[2,3-d]pyrimidine-6-carboxylic acid (2-chloro-5-phenethylcarbamoyl-phenyl)-amide] | 0.352 µM | 2.3 µM | 0.204 µM | – | – |
| CSc1ncc2cc(C(=O)Nc3cc(C(=O)NC(CCO)c4ccccc4)ccc3Cl)c(=O)[nH]c2n1 (stereo not drawn) [Example 141, N-(2-Chloro-5-(3-hydroxy-1-phenylpropylcarbamoyl)phenyl)-2-(methylthio)-7-oxo-7,8-dihydropyrido[2,3-d]pyrimidine-6-carboxamide] | 0.101 µM | 2.39 µM | 0.12 µM | – | – |
| COc1ncc2cc(C(=O)Nc3cc(C(=O)N[C@H](CN)c4cccc(Cl)c4)ccc3Cl)c(=O)[nH]c2n1 [Example 135, 2-Methoxy-7-oxo-7,8-dihydro-pyrido[2,3-d]pyrimidine-6-carboxylic acid {5-[(S)-2-amino-1-(3-chloro-phenyl)-ethylcarbamoyl]-2-chloro-phenyl}-amide] | 0.0109 µM | 0.523 µM | 0.0457 µM | – | – |
| O=C(NCc1cccc(Cl)c1)c1ccc(Cl)c(NC(=O)c2cc3cnc(N4CCOCC4)nc3[nH]c2=O)c1 [Example 86, 2-Morpholin-4-yl-7-oxo-7,8-dihydro-pyrido[2,3-d]pyrimidine-6-carboxylic acid [2-chloro-5-(3-chloro-benzylcarbamoyl)-phenyl]-amide] | 0.07 µM | > 10 µM | 3.25 µM | – | – |
| O=C(NCc1cccc(Cl)c1)c1ccc(Cl)c(NC(=O)c2cc3cnc(OCCN4CCOCC4)nc3[nH]c2=O)c1 [Example 81, 2-(2-Morpholin-4-yl-ethoxy)-7-oxo-7,8-dihydro-pyrido[2,3-d]pyrimidine-6-carboxylic acid [2-chloro-5-(3-chloro-benzylcarbamoyl)-phenyl]-amide] | 0.0313 µM | 0.651 µM | 0.128 µM | – | – |
| COc1ncc2cc(C(=O)Nc3cc(C(=O)N[C@H](CCO)c4ccccc4)ccc3Cl)c(=O)[nH]c2n1 [Example 158, (R)—N-(2-Chloro-5-(3-hydroxy-1-phenylpropylcarbamoyl)phenyl)-2-methoxy-7-oxo-7,8-dihydropyrido[2,3-d]pyrimidine-6-carboxamide] | 0.037 µM | 1.71 µM | 0.082 µM | – | – |
| O=C(NCc1cccc(F)c1)c1cc(NC(=O)c2cc3cnc(N4CCOCC4)nc3[nH]c2=O)c(Cl)cc1F [Example 162, 2-Morpholin-4-yl-7-oxo-7,8-dihydro-pyrido[2,3-d]pyrimidine-6-carboxylic acid [2-chloro-4-fluoro-5-(3-fluoro-benzylcarbamoyl)-phenyl]-amide] | 0.0432 µM | > 10 µM | 0.135 µM | – | – |
| COc1ncc2cc(C(=O)Nc3cc(C(=O)N[C@@H](CN)c4cccc(Cl)c4)ccc3Cl)c(=O)[nH]c2n1 [Example 134, 2-Methoxy-7-oxo-7,8-dihydro-pyrido[2,3-d]pyrimidine-6-carboxylic acid {5-[(R)-2-amino-1-(3-chloro-phenyl)-ethylcarbamoyl]-2-chloro-phenyl}-amide] | 0.481 µM | 7.57 µM | 1.98 µM | – | – |
| CN1CCN(CCNc2ncc3cc(C(=O)Nc4cc(C(=O)NCc5cccc(Cl)c5)ccc4Cl)c(=O)[nH]c3n2)CC1 [Example 99, 2-[2-(4-Methyl-piperazin-1-yl)-ethylamino]-7-oxo-7,8-dihydro-pyrido[2,3-d]pyrimidine-6-carboxylic acid [2-chloro-5-(3-chloro-benzylcarbamoyl)-phenyl]amide] | 0.0202 µM | – | 0.0347 µM | – | 0.0276 µM |
| O=C(NCc1cccc(Cl)c1)c1ccc(Cl)c(NC(=O)c2cc3cnc(N[C@H]4CC[C@@H](O)CC4)nc3[nH]c2=O)c1 [Example 95, 2-(4-Hydroxy-cyclohexylamino)-7-oxo-7,8-dihydro-pyrido[2,3-d]pyrimidine-6-carboxylic acid [2-chloro-5-(3-chloro-benzylcarbamoyl)-phenyl]amide] | 0.0257 µM | 0.406 µM | 0.012 µM | – | – |
| CSc1ncc2cc(C(=O)Nc3cc(C(=O)NC(CN)c4ccccc4)ccc3Cl)c(=O)[nH]c2n1 (stereo not drawn) [Example 105, N-(5-(2-amino-1-phenylethylcarbamoyl)-2-chlorophenyl)-2-(methylthio)-7-oxo-7,8-dihydropyrido[2,3-d]pyrimidine-6-carboxamide] | 0.0096 µM | 0.296 µM | 0.0099 µM | – | – |
